Structures can show the parent of a compound that is named as a salt. Where two headings read alike, the source gives them in different places.
Tests used:
corn [1] = assay: Example 12, Procedure II: Herbicide No. 1 + acetochlor (No. 6) with thirteen antidotes; type: in vivo
Description: (§1) Containers were filled and compacted with a fumigated silt loam top soil to a depth of about 1.3 cm from the top of the container. A first container was designated as an untreated control, a second container was designated as a herbicide control, and a third container was designated as a herbicide + antidote test container. Each of the containers was seeded with a crop species. A measured amount of herbicide dispersed or dissolved in acetone was applied to a measured quantity of soil. To this same quantity of soil treated with herbicide, there was added a measured amount of antidote dispersed or dissolved in acetone. The quantity of soil treated with the herbicide and antidote was thoroughly mixed to incorporate the herbicide and antidote in the soil uniformly. The seed bed in the third container of soil was covered with the soil treated with the herbicide and antidote and the container was leveled. For each test series, the seed beds of the first and second containers were likewise covered by soil layers. the cover layer of the first container was not treated with herbicide or antidote.
(§2) The containers were then placed on a bench in a greenhouse and sub-irrigated as required for the duration of the test. […] Plant response is measured in terms of percent injury. Antidote efficacy is indicated as the difference in plant injury by the herbicide(s) without the antidote and with the antidote.
(§3) This procedure is the same as Procedure I, but modified in the manner that after incorporation of the chemicals (herbicide and antidote) the containers with the covered seedbed were treated with an initial overhead irrigation equivalent to 0.6 cm rainfall, then subsequently sub-irrigated as required on greenhouse benches.
This example was designed to investigate the efficacy of thirteen different antidotes from different classes of chemistry as safeners against compositions of Herbicide No. 1 and acetochlor (Herbicide No. 6) as co-herbicide. Acetochlor is the active ingredient in the commercial herbicides GUARDIAN® and WENNER®.
The test procedure used in this example was Procedure II described above.

corn [2] = assay: Example 24, Procedure II: Herbicide No. 1 + co-herbicides Nos. 4, 6, 7, 12 with Antidote Nos. 15 and 17-21; type: in vivo; details: antidote 2.24 kg/ha; highest test rate (0.56 kg/ha) of Herbicide No. 1 + co-herbicide
Description: as §1, §2, §3
In other greenhouse tests, using Procedure II described above, the safening efficacy of Antidote Nos. 15 and 17-21 was evaluated against Herbicide No. 1 in corn in the presence of Giant foxtail (Setaria fabergi) and Velvetleaf (Abutilon theophrasti) as representative annual monocotyledonous and dicotyledonous weeds, respectively.
Test results are shown in Tables 23A and 23B wherein the indicated plant inhibition represents the average of duplicate replications, with observations being made thirteen (13) days after application of the chemicals. Giant foxtail and Velvetleaf are represented by the symbols "GFT" and "VL", respectively. The data in Table 23A show the test results using the antidotes at 2.24 kg/ha, whereas in Table 23B, the antidotal rate was reduced to 0.56 kg/ha.
The tests described in Example 23 were duplicated, but in this example a variety of co-herbicides were included to ascertain the efficacy of the antidotes against combinations of Herbicide No. 1 and Herbicides Nos. 4, 6, 7 and 12 as co-herbicides. Test results are shown in Table 24, wherein the antidote application rate was 2.24 kg/ha.

corn [3] = assay: Example 25, greenhouse preemergence test: Antidote Nos. 1 and 2 against Herbicide Nos. 1-3; type: in vivo, Corn (Pioneer 3424 variety); details: no antidote
Description: The chemicals were tested in both preemergence and post-emergence modes of application. The herbicides were prepared and applied as wettable powders; dichlormid was applied as an emulsifiable concentrate, while the naphthalic anhydride was applied as a coating on the corn seed prior to planting.
Test data from the preemergence tests are shown in Table 25A and from the post-emergence tests in Table 25B. In the tables, the concentration of chemicals is shown in terms of active ingredient in grams per hectare (G/ha); concentrations of the naphthalic anhydride were not measured per se, but were present as in conventional, normally-coated applications. Corn injury is shown in terms of percent inhibition of growth.

[4] = system: barnyardgrass (Echinochloa crusgalli); assay: Example 6, Procedure II: Herbicide No. 1 + alachlor (No. 7) with antidotes; type: in vivo; details: Herbicide No.7 4.48 kg/ha alone
Description: as §1, §2, §3
(§4) In the series of greenhouse tests described below, for routine screening purposes the herbicide/antidote compositions were tested in crop/weed combinations involving corn as the crop and either or both of the weeds barnyardgrass (Echinochloa crusgalli), a monocotyledonous weed, and velvetleaf (Abutilon theophrasti), a dicotyledonous weed. In the tables below, these weeds are indicated by the symbols "BYG" and "VL", respectively.
(§5) This example was designed to investigate the antidotal efficacy of a plurality of antidotal compounds against a composition comprising Herbicide No. 1 in combination with Herbicide No. 7 (alachlor). The antidotal compounds used herein were Nos. 1, 2, 7, 13 and 15.
(§6) In this example, Procedure II described above was followed. The data from the tests in this example is shown in Table 6 and represents averages of duplicate replications.

[5] = system: velvetleaf (Abutilon theophrasti); assay: as above; type: in vivo; details: Herbicide No.7 4.48 kg/ha alone
Description: as §1, §2, §3, §4, §5, §6

corn [6] = assay: as above; type: in vivo; details: Herbicide No.7 4.48 kg/ha alone
Description: as §1, §2, §3, §5, §6

corn [7] = assay: Example 8, Procedure II: Herbicide No. 1 + butachlor (No. 9) with antidotes; type: in vivo; details: Herbicide No.9 2.24 kg/ha alone
Description: as §1, §2, §3
(§7) In this test, the efficacy of the same five antidotes used in Examples 6 and 7 was investigated in compositions comprising Herbicide No. 1 and as a co-herbicide, butachlor (Herbicide No. 9), active ingredient in MACHETE® herbicide, a leading commercial rice herbicide. The test procedure used in this example was the same as that in Examples 6 and 7.

[8] = system: barnyardgrass (Echinochloa crusgalli); assay: as above; type: in vivo; details: Herbicide No.9 2.24 kg/ha alone
Description: as §1, §2, §3, §4, §7

[9] = system: velvetleaf (Abutilon theophrasti); assay: as above; type: in vivo; details: Herbicide No.9 2.24 kg/ha alone
Description: as §1, §2, §3, §4, §7

[10] = system: barnyardgrass (Echinochloa crusgalli); assay: Example 7, Procedure II: Herbicide No. 1 + metolachlor (No. 12) with antidotes; type: in vivo; details: Herbicide No.12 3.36 kg/ha alone
Description: as §1, §2, §3, §4, §6
(§8) The tests in this example followed the same procedure and antidotes used in Example 6. However, Herbicide No. 12 (metolachlor) was used as the co-herbicide with Herbicide No. 1.

[11] = system: velvetleaf (Abutilon theophrasti); assay: as above; type: in vivo; details: Herbicide No.12 3.36 kg/ha alone
Description: as §1, §2, §3, §4, §6, §8

corn [12] = assay: as above; type: in vivo; details: Herbicide No.12 3.36 kg/ha alone
Description: as §1, §2, §3, §6, §8

[13] = system: velvetleaf (Abutilon theophrasti); assay: Example 20, Procedure II: Herbicide No. 1 + EPTC or ERADICANE EXTRA with Antidote Nos. 5 and 15; type: in vivo
Description: as §1, §2, §3, §4
(§9) This example describes experiments designed to test two generally efficacious antidotal compounds, i.e., Antidote Nos. 5 and 15, against the herbicidal action of the sulfonylurea compound, Herbicide No. 1, and the commercial herbicides EPTC (Herbicide No. 4) and ERADICANE® EXTRA (EPTC + R-29148, Antidote No. 5). Procedure II above was used in conducting these experiments. Formulations of EPTC and ERADICANE EXTRA were applied onto soil cover layers (to be applied over seed beds), followed by sequential pipetting of Herbicide No. 1 and Antidote No. 15. The soil was mixed to homogeneity and spread over the seed beds followed by 0.6 cm of overhead irrigation.

corn [14] = assay: as above; type: in vivo
Description: as §1, §2, §3, §9

corn [15] = assay: Example 3, Procedure I: antidotes against Herbicide No. 1; type: in vivo
Description: as §1, §2
(§10) This example details the results of tests with Antidote Nos. 12, 15 and 16 to safen Herbicide No. 1 over application rates ranging from 4.48 kg/ha down to 0.56 kg/ha, in corn in the presence of barnyardgrass. Procedure I described above was used in these tests.

[16] = system: barnyardgrass (Echinochloa crusgalli); assay: as above; type: in vivo
Description: as §1, §2, §4, §10

[17] = Herbicide No. 4 2.24 kg/ha alone
[18] = Herbicide No. 4 4.48 kg/ha alone
[19] = Herbicide No. 4 6.72 kg/ha alone
[20] = Herb. No. 1 0.56 kg/ha + antidote 0.56 kg/ha
[21] = Herb. No. 1 0.56 kg/ha + antidote 2.24 kg/ha
[22] = Herb. No. 1 0.56 kg/ha + antidote 8.96 kg/ha
[23] = Herb. No. 1 1.12 kg/ha + antidote 0.56 kg/ha
[24] = Herb. No. 1 1.12 kg/ha + antidote 2.24 kg/ha
[25] = Herb. No. 1 1.12 kg/ha + antidote 8.96 kg/ha
[26] = Herb. No. 1 2.24 kg/ha + antidote 0.56 kg/ha
[27] = Herb. No. 1 2.24 kg/ha + antidote 2.24 kg/ha
[28] = Herb. No. 1 2.24 kg/ha + antidote 8.96 kg/ha
[29] = Herb. No. 1 4.48 kg/ha + antidote 0.56 kg/ha
[30] = Herb. No. 1 4.48 kg/ha + antidote 2.24 kg/ha
[31] = Herb. No. 1 4.48 kg/ha + antidote 8.96 kg/ha
[32] = antidote 8.96 kg/ha alone, no herbicide

N#CC(=NOCC1OCCO1)c1ccccc1 [Antidote No. 6, Benzeneacetonitrile, α-{[(1,3-dioxolan-2-yl)methoxy]imino}-]
safening of corn, assessment in words (corn [1]; Herbicide No. 1:Herbicide 6:Antidote 0.14:2.24:2.24 kg/ha): performed at commercial levels | safening of corn, assessment in words (corn [1]; Herbicide No. 1:Herbicide 6:Antidote 0.14:2.24:8.96 kg/ha): performed at commercial levels

CC1COc2ccccc2N1C(=O)C(Cl)Cl (stereo not drawn) [Antidote No. 17, 4-(Dichloroacetyl)-3,4-dihydro-3-methyl-2H-1,4-benzoxazine]
safening of corn, assessment in words (corn [2]): failed to safen

O=C(O)COC(c1ccccc1)c1ccccc1 [Antidote No. 18, Acetic acid, (diphenylmethoxy)- sodium salt, hemihydrate]
safening of corn, assessment in words (corn [2]): failed to safen

COC(=O)COC(c1ccccc1)c1ccccc1 [Antidote No. 20, Acetic acid, (diphenylmethoxy)-, methyl ester]
safening of corn, assessment in words (corn [2]): failed to safen

CCOC(=O)c1cnn(C)c1S(=O)(=O)NC(=O)Nc1nc(OC)cc(OC)n1 [Herbicide No. 3, N-[(4,6-dimethoxypyrimidin-2-yl)aminocarbonyl]-4-ethoxycarbonyl-1-methylpyrazole-5-sulfonamide]
inhibition at 0.07 g/ha (corn [3]; Zea mays, pre-emergence, Preemergence, herbicide alone 0.07 G/ha): 19.1% | inhibition at 0.25 g/ha (corn [3]; Zea mays, pre-emergence, Preemergence, herbicide alone 0.25 G/ha, read-out: % Inhibition Corn): 80.9% | inhibition at 0.74 g/ha (corn [3]; Zea mays, pre-emergence, Preemergence, herbicide alone 0.74 G/ha): 80.9% | inhibition at 0.25 g/ha (corn [3]; Zea mays, pre-emergence, preemergence, Herbicide No. 3 0.25 G/ha, read-out: corn injury, percent inhibition of growth): 80.9%

CCOCN(C(=O)CCl)c1c(C)cccc1CC [Herbicide No. 6, 2-Chloro-N-(ethoxymethyl)-6'-ethyl-o-acetoluidide, reference compound]
injury to corn (corn [1]; Herbicide No. 6 2.24 kg/ha, without an antidote): 25%

CCc1cccc(CC)c1N(COC)C(=O)CCl [Herbicide No. 7, 2-Chloro-2',6'-diethyl-N-(methoxymethyl)acetanilide, reference compound]
% Injury BYG [4]: 100% | % Injury VL [5]: 25% | % Injury Corn (corn [6]): 10%

CCCCOCN(C(=O)CCl)c1c(CC)cccc1CC [Herbicide No. 9, 2-Chloro-2',6'-diethyl-N-(butoxymethyl)acetanilide, reference compound]
% Injury Corn (corn [7]): 5% | % Injury BYG [8]: 99% | % Injury VL [9]: 25%

CCc1cccc(C)c1N(C(=O)CCl)C(C)COC (stereo not drawn) [Herbicide No. 12, 2-Chloro-N-(2-methoxy-1-methylethyl)-6'-ethyl-o-acetotoluidide, reference compound]
% Injury BYG [10]: 100% | % Injury VL [11]: 20% | % Injury Corn (corn [12]): 0%

CCCN(CCC)C(=O)SCC [No. 4]
% Injury VL [13, 17]: 0% | % Injury VL [13, 18]: 0% | % Injury VL [13, 19]: 18% | % Injury Corn (corn [14]; [17]): 0% | % Injury Corn (corn [14]; [18]): 0% | % Injury Corn (corn [14]; [19]): 10%

CC1(C)OC(c2cccs2)CN1C(=O)C(Cl)Cl (stereo not drawn) [compound 11]
% Injury Corn (corn [15]; [20]): 15% | % Injury Corn (corn [15]; [21]): 0% | % Injury Corn (corn [15]; [22]): 0% | % Injury Corn (corn [15]; [23]): 5% | % Injury Corn (corn [15]; [24]): 0% | % Injury Corn (corn [15]; [25]): 0% | % Injury Corn (corn [15]; [26]): 30% | % Injury Corn (corn [15]; [27]): 0% | % Injury Corn (corn [15]; [28]): 0% | % Injury Corn (corn [15]; [29]): 50% | % Injury Corn (corn [15]; [30]): 30% | % Injury Corn (corn [15]; [31]): 5% | % Injury Corn (corn [15]; [32]): 15% | % Injury BYG [16, 20]: 70% | % Injury BYG [16, 21]: 20% | % Injury BYG [16, 22]: 0% | % Injury BYG [16, 23]: 80% | % Injury BYG [16, 24]: 15% | % Injury BYG [16, 25]: 0% | % Injury BYG [16, 26]: 75% | % Injury BYG [16, 27]: 30% | % Injury BYG [16, 28]: 0% | % Injury BYG [16, 29]: 80% | % Injury BYG [16, 30]: 80% | % Injury BYG [16, 31]: 50% | % Injury BYG [16, 32]: 0%

N-[(4,6-dimethoxypyridin-2-yl)aminocarbonyl]-3-chloro-4-ethoxycarbonyl-1-methylpyrazole-5-sulfonamide [Herbicide No. 2]
% Inhibition Corn (corn [3]; Preemergence, herbicide alone 0.25 G/ha): 21.7% | % Inhibition Corn (corn [3]; Preemergence, herbicide alone 0.74 G/ha): 36.4% | % Inhibition Corn (corn [3]; Preemergence, herbicide alone 2.5 G/ha): 42.7%

From patent publication EP0603240B1, “SAFENING HERBICIDAL PYRAZOLYLSULFONYLUREAS” (priority 1991, dated 1993)
